Reference: the supplement of paper PMC10307832

Tests used:
Assay in all cases: relative viability (nuclei count vs DMSO), 5 days (fraction); higher = more cells survive
[1] = compound: Cn1cc(-c2cnc3ccc4ccc(CS(=O)(=O)NCc5ccccn5)cc4c(=O)c3c2)cn1 [MK-8033] + Cc1nc(NC(=O)N2CCC[C@H]2C(N)=O)sc1-c1ccnc(C(C)(C)C(F)(F)F)c1 [Alpelisib] (partner 2 µM)
Method in brief: (§1)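 The day after seeding in 1536-well plates, lung cancer cell lines were treated by pin tool with a single drug, or with a fixed anchor-drug dose together with five library-drug doses (not always all listed) in √10 steps. After 5 days, a combined fix-and-stain solution (final 0.05% Triton X-100, 1% formaldehyde, 1 ug/ml Hoechst) was added. Nuclei counted on 4× images gave relative viability as treated counts over vehicle counts, reported as the median of duplicate plates.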

[2] = compound: CC[C@@H](C)CNCC(=O)N1CCC2=C([C@@H]1COC3=CC=CC(=C3)C)C=CS2 [RU-SKI 43] + Nc1nc2[nH]cc(CCc3ccc(C(=O)N[C@@H](CCC(=O)O)C(=O)O)cc3)c2c(=O)[nH]1 [Pemetrexed] (partner 0.2 µM)
Method in brief: as §1

[3] = compound: Cn1cc(-c2cnc3ccc4ccc(CS(=O)(=O)NCc5ccccn5)cc4c(=O)c3c2)cn1 [MK-8033] + Nc1ncn([C@H]2C[C@H](O)[C@@H](CO)O2)c(=O)n1 [Decitabine] (partner 2 µM)
Method in brief: as §1

[4] = compound: CC[C@@H](C)CNCC(=O)N1CCC2=C([C@@H]1COC3=CC=CC(=C3)C)C=CS2 [RU-SKI 43] + CC(=O)Nc1cccc(-n2c(=O)n(C3CC3)c(=O)c3c(Nc4ccc(I)cc4F)n(C)c(=O)c(C)c32)c1 [Trametinib] (partner 0.02 µM)
Method in brief: as §1

Cell Line | relative viability ([1]; first compound 0.02 µM) | relative viability ([1]; first compound 0.06325 µM) | relative viability ([1]; first compound 0.2 µM) | relative viability ([1]; first compound 0.6325 µM) | relative viability ([1]; first compound 2 µM) | relative viability ([2]; first compound 0.1 µM) | relative viability ([2]; first compound 0.3162 µM) | relative viability ([2]; first compound 1 µM) | relative viability ([2]; first compound 3.162 µM) | relative viability ([2]; first compound 10 µM) | relative viability ([3]; first compound 0.02 µM) | relative viability ([3]; first compound 0.06325 µM) | relative viability ([3]; first compound 0.2 µM) | relative viability ([3]; first compound 0.6325 µM) | relative viability ([3]; first compound 2 µM) | relative viability ([4]; first compound 0.1 µM) | relative viability ([4]; first compound 0.3162 µM) | relative viability ([4]; first compound 1 µM) | relative viability ([4]; first compound 3.162 µM) | relative viability ([4]; first compound 10 µM)
NCI-H520 | 0.806 | 0.841 | 0.832 | 0.905 | 0.871 | 0.651 | 0.801 | 0.831 | 0.858 | 0.636 | 0.525 | 0.485 | 0.527 | 0.535 | 0.465 | 0.79 | 1.02 | 0.654 | 0.794 | 0.45
BEN | 0.914 | 0.89 | 1 | 1.08 | 1 | 0.941 | 0.682 | 0.997 | 0.665 | 0.825 | 0.805 | 0.702 | 0.655 | 0.71 | 0.761 | 0.967 | 1.12 | 1.06 | 1.11 | 1.01
A-427 | 1.05 | 1.07 | 1.03 | 1.16 | 1.11 | 1.02 | 0.948 | 1.15 | 1.04 | 0.995 | 0.579 | 0.523 | 0.585 | 0.583 | 0.569 | 0.718 | 0.694 | 0.788 | 0.744 | 0.706
EMC-BAC-2 | 0.666 | 0.709 | 0.743 | 0.713 | 0.68 | 0.441 | 0.401 | 0.455 | 0.428 | 0.443 | 0.941 | 0.762 | 0.967 | 0.982 | 0.938 | 0.857 | 0.9 | 0.939 | 0.861 | 0.749
NCI-H1975 | 0.604 | 0.557 | 0.584 | 0.571 | 0.649 | 0.311 | 0.298 | 0.341 | 0.327 | 0.292 | 0.351 | 0.328 | 0.358 | 0.342 | 0.427 | 0.311 | 0.351 | 0.355 | 0.296 | 0.257
NCI-H1755 | 0.931 | 0.883 | 0.857 | 0.909 | 0.849 | 0.374 | 0.466 | 0.378 | 0.377 | 0.637 | 0.743 | 0.673 | 0.769 | 0.64 | 0.691 | 0.751 | 0.866 | 0.839 | 0.833 | 0.768
NCI-H2023 | 0.655 | 0.516 | 0.5 | 0.474 | 0.521 | 0.249 | 0.259 | 0.286 | 0.21 | 0.243 | 0.217 | 0.203 | 0.213 | 0.247 | 0.212 | 0.585 | 0.643 | 0.547 | 0.685 | 0.528
EKVX | 0.812 | 0.747 | 0.787 | 0.808 | 0.903 | 0.419 | 0.344 | 0.417 | 0.407 | 0.393 | 0.34 | 0.285 | 0.388 | 0.343 | 0.399 | 0.275 | 0.312 | 0.268 | 0.349 | 0.315
EPLC-272H | 0.91 |  | 0.877 | 0.948 | 1.02 | 0.349 | 0.405 | 0.243 | 0.317 | 0.238 | 0.338 | 0.373 | 0.325 | 0.367 | 0.37 | 0.294 | 0.294 | 0.552 | 0.296 | 0.278
LCLC-97TM1 | 0.199 | 0.234 | 0.205 | 0.207 | 0.235 | 0.188 | 0.175 | 0.19 | 0.184 | 0.178 | 0.218 | 0.207 |  | 0.209 | 0.211 | 0.193 | 0.246 | 0.256 | 0.187 | 0.148
NCI-H2085 | 0.873 | 0.936 | 0.925 | 0.823 | 0.971 | 1.02 | 0.899 | 0.894 | 0.85 | 0.845 | 0.53 | 0.571 | 0.475 | 0.544 | 0.559 | 0.506 | 0.493 | 0.494 | 0.653 | 0.499
COR-L23 | 0.71 | 0.864 | 0.74 | 0.828 | 0.645 | 0.203 | 0.202 | 0.205 | 0.22 | 0.189 | 0.447 | 0.361 | 0.465 | 0.455 | 0.443 | 0.611 | 0.598 | 0.672 | 0.577 | 0.423
HCC-15 | 0.847 | 0.947 | 0.863 | 0.841 | 0.875 | 0.215 | 0.229 | 0.241 | 0.217 | 0.2 | 0.62 | 0.595 | 0.548 | 0.57 | 0.653 | 0.41 | 0.373 | 0.37 | 0.384 | 0.336
RERF-LC-KJ | 0.735 | 0.76 | 0.698 | 0.777 | 0.774 | 0.48 | 0.462 | 0.508 | 0.457 | 0.482 | 0.501 | 0.712 | 0.682 | 0.756 | 0.686 | 0.846 | 0.84 | 0.914 | 0.85 | 0.768
PC-3 [JPC-3] | 0.959 |  | 0.998 | 1 | 0.956 | 1.09 | 0.917 | 1.37 | 1.15 | 1.2 | 0.803 |  | 0.748 | 0.845 | 0.804 | 0.63 | 0.523 | 0.79 | 0.662 | 0.62
NCI-H1355 | 0.766 | 0.74 | 0.72 | 0.87 | 0.786 | 1.02 | 1.09 | 1.09 | 1.14 | 1.05 | 0.363 | 0.309 | 0.36 | 0.335 | 0.318 | 0.451 | 0.437 | 0.376 | 0.477 | 0.464
